*1 amine or outer side, *2 acyl side, *3 side chain or, on linkers, in order; H or OH if unused. Where a SMILES comes first, the peptide text is derived from it. Bridges are numbered along the chain shown (N, C = ends). Roman numbers before positions name the chains, in order. [ ]: non-standard residue; d: D form. The star is where a group is joined. Actinocin(9to1) = Cc1c2oc3c(C)ccc(C(=O)[*:1])c3nc-2c(C(=O)[*:2])c(N)c1=O; NMeV = CN[C@H](C(=O)O)C(C)C; Cbz = O=C(OCc1ccccc1)*; Sar = CNCC(=O)O; CH2F = FC*

The subject of one test is NIH 3T3 cells. As to the kind of experiment: Cell death in NIH 3T3 cells. Format: cell-based. The settings on record: data not shown.
Test [1] concerns MLC20 phosphorylation. As to the kind of experiment: MLC20 phosphorylation by urea gel/Western blotting in NIH 3T3 fibroblasts. The format is cell-based. Conditions: 500 nM actinomycin D, 0-24 hours. Here is the method:
NIH 3T3 fibroblasts were obtained from ATCC and were grown in Dulbecco's Modified Eagle Medium (DMEM) (Gibco BRL, Gaithersburg, Md.) supplemented with 10% FBS and 1% penicillin and streptomycin in a 37° C. incubator. 3T3 cells were treated with 500 nM actinomycin D in DMEM containing 0.5% FBS without antibiotics for the 0, 2, 4, 8, 16, or 24 hours. Cells were then washed with phosphate buffered saline (PBS). Floating cells were collected by centrifugation and combined with attached cells that were harvested by trypsinization. MLC20 phosphorylation was quantified be Western blotting with an anti-MLC20 antibody (FIG. 1). In short, the harvested cells were treated with ice cold 10% TCA, 10 mM DTT to precipitate the cellular proteins. The pellets were washed with acetone, dissolved in 9 M urea, 10 mM DTT, 20 mM Tris, pH 7.5 and separated using glycerol-urea polyacrylamide gel electrophoresis (PAGE). […] Protein bands were visualized with ECL reagent and the stoichiometry of phosphorylation (mol PO4/mol MLC20) was calculated as described (Obara et al., 1989, “Okadaic acid, a phosphatase inhibitor, produces a Ca2+ and calmodulin-independent contraction of lamb tracheal smooth muscle,” Pfluger's Archiv. 414: 134-138).

The test system of test [2] is MLC20 phosphorylation. The test can be described thus: MLC20 phosphorylation by urea gel/Western blotting in smooth muscle cells (SMC). The format is cell-based, pig. The protocol: NIH 3T3 fibroblasts were obtained from ATCC and were grown in Dulbecco's Modified Eagle Medium (DMEM) (Gibco BRL, Gaithersburg, Md.) supplemented with 10% FBS and 1% penicillin and streptomycin in a 37° C. incubator. 3T3 cells were treated with 500 nM actinomycin D in DMEM containing 0.5% FBS without antibiotics for the 0, 2, 4, 8, 16, or 24 hours. Cells were then washed with phosphate buffered saline (PBS). Floating cells were collected by centrifugation and combined with attached cells that were harvested by trypsinization. MLC20 phosphorylation was quantified be Western blotting with an anti-MLC20 antibody (FIG. 1). In short, the harvested cells were treated with ice cold 10% TCA, 10 mM DTT to precipitate the cellular proteins. The pellets were washed with acetone, dissolved in 9 M urea, 10 mM DTT, 20 mM Tris, pH 7.5 and separated using glycerol-urea polyacrylamide gel electrophoresis (PAGE). The proteins were transferred to nitrocellulose, the un-, mono-, and di-phosphorylated forms of MLC20 were identified using an affinity purified antibody to MLC20 and horseradish peroxidase-linked secondary antibody (Jackson ImmunoResearch, West Grove, Pa.). Protein bands were visualized with ECL reagent and the stoichiometry of phosphorylation (mol PO4/mol MLC20) was calculated as described (Obara et al., 1989, “Okadaic acid, a phosphatase inhibitor, produces a Ca2+ and calmodulin-independent contraction of lamb tracheal smooth muscle,” Pfluger's Archiv. 414: 134-138).
(§1) The stoichiometry of MLC20 phosphorylation (FIG. 1B, inset) was quantified using the urea gel/Western blotting method described above in untreated (Un) pig pulmonary artery smooth muscle cells (SMC) and SMC treated with 10 μM dexamethasone (Dex), 10 μM actinomycin D (ActD), 100 μM cycloheximide (Chx), 2 μM camptothecin (Cam), and 100 μM etoposide (Eto) for 24 hrs (mean+/−SE, n=3).
(§2) Next, in order to determine whether MLC-DP can trigger cell death, SMC were treated with ML-7 or KT5926, two inhibitors of MLCK (Nakanishi et al., 1990; Garcia, 1998; and Bain et al., 2003).
(§3) SMC cells were either treated with 10 μM cytochalasin D (CytD) or grown on the non-ionic substrate polyHema to prevent attachment.

Test [3] has as its system pig pulmonary artery smooth muscle cells. The test can be described thus: Cell death / apoptosis in smooth muscle cells (SMC). Format: cell-based. The protocol: as §1, §2, §3
SMC were left untreated, treated with ML-7 alone for 16 hours or treated with 50 μM z-VAD-fmk (caspase) for 1 hr followed by 20 μM ML-7 for 16 hours. […] The results represent the mean+/−SE for 3 independent experiments and * indicates a p value <0.05 using a paired T test.

Another test deals with SMC. As to the kind of experiment: TUNEL staining of SMC. The format is cell-based, pig. Here is the method:
Also, cells were treated with 50 μM z-VAD-fmk for 1 hour, 20 μM ML-7 for 4 hours or 50 μM z-VAD-fmk for 1 hours followed by 20 μM ML-7 for 4 hours (FIG. 5B). The cells were then fixed and stained with TUNEL reagent and DAPI.

Where [4] appears, read: 24 hrs, 10 μM Dex, 10 μM ActD, 100 μM Chx, 2 μM Cam, 100 μM Eto.

On to `CCCOc1ccc2c(c1)c1c3c(c4c5ccccc5n5c4c1n2[C@H]1C[C@](O)(C(=O)OC)[C@]5(C)O1)CNC3=O` (relative stereo) [KT5926, [(8R*,9S*,11S*)-(−)9-hydroxy-9-methoxycarbonyl-8-methyl-14-n-propoxy-2,3,9,10-tetrahydro-8,11-epoxy, 1H,8H, 11H-2,7b,11a-triazadibenzo [a,g]cycloocta [cde]trinden-1-one], for which the cell death entry in the test on NIH 3T3 cells is “cell death, including genome digestion”.

`Cc1c2oc3c(C)ccc(C(=O)N[C@@H]4C(=O)N[C@H](C(C)C)C(=O)N5CCC[C@H]5C(=O)N(C)CC(=O)N(C)[C@@H](C(C)C)C(=O)O[C@@H]4C)c3nc-2c(C(=O)N[C@@H]2C(=O)N[C@H](C(C)C)C(=O)N3CCC[C@H]3C(=O)N(C)CC(=O)N(C)[C@@H](C(C)C)C(=O)O[C@@H]2C)c(N)c1=O` [actinomycin D] (I: T[dV]P[Sar][NMeV] / II: T[dV]P[Sar][NMeV]; ester I:1-I:C, II:1-II:C; linker I:N-II:N via Actinocin(9to1)): the MLC20 phosphorylation entry with MLC20 phosphorylation [1] is listed as “initial increase in MLC20 phosphorylation that was followed by MLC20 dephosphorylation”; in the test on MLC20 phosphorylation [2] (setting [4]), “dephosphorylated”.

Turning to `CC[C@@]1(O)C(=O)OCc2c1cc1n(c2=O)Cc2cc3ccccc3nc2-1` [camptothecin], the MLC20 phosphorylation result with MLC20 phosphorylation [2] (setting [4]) is listed as “dephosphorylated”.

On to `C[C@@H]1C[C@@H]([C@H](O)CC2CC(=O)NC(=O)C2)C(=O)[C@@H](C)C1` [cycloheximide], for which the MLC20 phosphorylation result in the test on MLC20 phosphorylation [2] (setting [4]) was “dephosphorylated”.

Regarding `C=C1[C@@H](C)[C@H]2[C@H](Cc3ccccc3)NC(=O)[C@]23[C@H](OC(C)=O)/C=C/[C@@](C)(O)C(=O)[C@@H](C)C/C=C/[C@H]3[C@@H]1O` [cytochalasin D], in test [3] (SMC, 10 μM cytochalasin D overnight, vs untreated), the cell death entry is reported as “significant increases”. Also, the MLC20 phosphorylation result with MLC20 phosphorylation [2] (10 μM cytochalasin D overnight, vs untreated) is reported as “significant decreases”.

For the compound `COC(=O)C[C@H](NC(=O)[C@H](C)NC(=O)[C@@H](NC(=O)OCc1ccccc1)C(C)C)C(=O)CF` [z-VAD-fmk] (Cbz-Val-Ala-Asp(OMe)-CH2F), in test [3] (50 μM z-VAD-fmk 1 hr then 20 μM ML-7 16 hours, vs ML-7 alone), the “number of apoptotic cells (FACS)” value is “significant decrease”. Also, the “TUNEL positive nuclei in ML-7 treated cells” value in the test with SMC (50 μM z-VAD-fmk 1 hour then 20 μM ML-7 4 hours) was “decreased the number of TUNEL positive nuclei”. The TUNEL positive nuclei result in the test with SMC (single agent: 50 μM z-VAD-fmk 1 hour or 20 μM ML-7 4 hours) is reported as “very few TUNEL positive nuclei”.
